The source of these data is publication PMC7689250, “Synthetic Peptide Libraries Designed From a Minimal Alpha-Helical Domain of AS-48-Bacteriocin Homologs Exhibit Potent Antibacterial Activity” (Frontiers in Microbiology, 2020).

In one series the test system is E. coli (BL21). The format is cell-based, Escherichia coli. Summed up: (§1)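 MIC in Mueller-Hinton broth with 1 × 10^6 CFU/mL bacteria, overnight cultures grown first in LB (E. coli, P. aeruginosa, S. aureus) or Todd-Hewitt (S. pyogenes); growth read as OD 600. Library members screened at half the parent peptide MIC; MBC as lowest concentration giving no colonies after plating MIC wells, 37°C overnight.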

The subject of a further series is S. pyogenes (M1). The series is classed as cell-based, Streptococcus pyogenes. To be noted: for MBC: M1. The essentials: as §1
A further series deals with S. aureus (USA300). The format is cell-based, Staphylococcus aureus. The essentials: as §1
The next series deals with P. aeruginosa (PAO1). The series is classed as cell-based, Pseudomonas aeruginosa. To be noted: for MBC: PAO1; for MIC: PAO1, 16 h. The essentials:
as §1

A further series concerns sheep erythrocytes. The series is classed as cell-based. To be noted: red cells of sheep, 1 h. The essentials:
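Washed defibrinated sheep blood, diluted 1:25 in PBS, incubated 1 h at 37 °C with peptide at the MIC-assay concentrations (sample:blood 1:10). Haemoglobin release read as supernatant absorbance at 450 nm; percent haemolysis normalised to PBS and 10% Triton controls.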

SMILES strings stand for the structures. Where two headings read alike, the source gives them in different places. Residues, ends and D or L forms follow the SMILES beside them.

As a reminder, the MBC is the lowest tested concentration that kills the bacteria rather than only halting them. Broadly, the MIC is the lowest concentration found to suppress growth. `CC[C@H](C)[C@H](NC(=O)[C@H](Cc1ccccc1)NC(=O)[C@H](C)NC(=O)[C@H](CCCCN)NC(=O)[C@H](CCCCN)NC(=O)[C@H](Cc1c[nH]c2ccccc12)NC(=O)[C@H](CCCNC(=N)N)NC(=O)[C@H](CCCCN)NC(=O)[C@H](CCCNC(=N)N)NC(=O)[C@H](CC(C)C)NC(=O)[C@H](CCC(=O)O)NC(=O)[C@H](CCC(=O)O)NC(=O)[C@H](CC(C)C)NC(=O)[C@H](CC(C)C)NC(=O)[C@H](Cc1ccc(O)cc1)NC(=O)[C@H](CCCCN)NC(=O)[C@@H](NC(=O)[C@H](CC(C)C)NC(=O)[C@H](C)NC(=O)[C@H](CCC(N)=O)NC(=O)[C@H](CCCNC(=N)N)NC(=O)CNC(=O)[C@H](C)N)[C@@H](C)O)C(=O)N[C@@H](C)C(=O)N[C@@H](Cc1c[nH]c2ccccc12)C(=O)O` [Syn-xiamencin-20] (H-AGRQALTKYLLEELRKRWKKAFIAW-OH; N-terminus and C-terminus assumed): the minimum bactericidal concentration (MBC) in the series with E. coli (BL21) (BL21) came to 1 µM; in the series with S. pyogenes (M1) it was 2 µM; in the series on S. aureus (USA300) (USA300), 32 µM; in the series on P. aeruginosa (PAO1) it was 64 µM. Besides, the MIC in the series on E. coli (BL21) (BL21, 16 h) is 1 µM; in the series with S. pyogenes (M1) (M1, 16 h), 2 µM; in the series on S. aureus (USA300) (USA300, 16 h), 32 µM; in the series on P. aeruginosa (PAO1), 64 µM. For the same compound, the “Percent Hemolysis” value in the series with sheep erythrocytes was 10.5%.
In the case of `CC[C@H](C)[C@H](NC(=O)[C@H](CCCCN)NC(=O)[C@H](C)NC(=O)[C@H](CCCNC(=N)N)NC(=O)[C@H](CCCCN)NC(=O)CNC(=O)[C@H](CCCCN)NC(=O)[C@H](CCC(=O)O)NC(=O)[C@H](CCC(N)=O)NC(=O)[C@@H](NC(=O)[C@@H](NC(=O)[C@H](CCCCN)NC(=O)[C@H](CCCCN)NC(=O)[C@H](CC(C)C)NC(=O)[C@H](Cc1ccccc1)NC(=O)[C@H](CCC(N)=O)NC(=O)[C@H](CCCNC(=N)N)NC(=O)[C@@H](NC(=O)[C@@H](NC(=O)[C@H](CCC(=O)O)NC(=O)[C@H](CCCCN)NC(=O)CNC(=O)[C@H](C)N)[C@@H](C)O)[C@@H](C)CC)[C@@H](C)O)[C@@H](C)CC)C(=O)N[C@@H](Cc1c[nH]c2ccccc12)C(=O)N[C@@H](Cc1c[nH]c2ccccc12)C(=O)O` [Syn-larvacin-69] (H-AGKETIRQFLKKTIQEKGKRAKIWW-OH; N-terminus and C-terminus assumed), the MBC with E. coli (BL21) (BL21) was 16 µM; in the series on S. pyogenes (M1), 0.5 µM; in the series with S. aureus (USA300) (USA300), 16 µM; in the series on P. aeruginosa (PAO1), 32 µM. Also, the minimal inhibitory concentration (MIC) in the series on E. coli (BL21) (BL21, 16 h) amounted to 2 µM; in the series with S. pyogenes (M1) (S. pyogenes M1) it was 0.125 µM; with S. aureus (USA300) (USA300, 16 h), 16 µM; in the series on P. aeruginosa (PAO1) it was 32 µM. The “Percent Hemolysis” value in the series with sheep erythrocytes is 12.5%.
`CC[C@H](C)[C@H](NC(=O)[C@H](Cc1ccccc1)NC(=O)[C@H](C)NC(=O)[C@H](CCCCN)NC(=O)[C@H](CCCCN)NC(=O)CNC(=O)[C@H](CCCNC(=N)N)NC(=O)[C@H](CCCCN)NC(=O)[C@H](CCCNC(=N)N)NC(=O)[C@H](CC(C)C)NC(=O)[C@H](CCC(=O)O)NC(=O)[C@H](CCC(=O)O)NC(=O)[C@H](CC(C)C)NC(=O)[C@H](CC(C)C)NC(=O)[C@H](Cc1ccc(O)cc1)NC(=O)[C@H](CCCCN)NC(=O)[C@@H](NC(=O)[C@H](CC(C)C)NC(=O)[C@H](C)NC(=O)[C@H](CCC(N)=O)NC(=O)[C@H](CCCNC(=N)N)NC(=O)[C@H](CCCCN)NC(=O)[C@H](C)N)[C@@H](C)O)C(=O)N[C@@H](C)C(=O)N[C@@H](Cc1c[nH]c2ccccc12)C(=O)O` [Syn-xiamencin-92] (H-AKRQALTKYLLEELRKRGKKAFIAW-OH; N-terminus and C-terminus assumed): the MBC in the series with E. coli (BL21) (BL21) was determined as 8 µM; in the series with S. pyogenes (M1), 8 µM; in the series on S. aureus (USA300) (USA300), 8 µM; in the series with P. aeruginosa (PAO1) it was 16 µM. For the same compound, the MIC in the series on E. coli (BL21) (BL21, 16 h) is 4 µM; with S. pyogenes (M1) (M1, 16 h), 4 µM; in the series on S. aureus (USA300) (USA300, 16 h) it was 8 µM; in the series with P. aeruginosa (PAO1) it was 16 µM. Besides, in the series on sheep erythrocytes, the “Percent Hemolysis” value is on record as 18.8%.
As for `CC[C@H](C)[C@H](NC(=O)[C@H](Cc1ccccc1)NC(=O)[C@H](C)NC(=O)[C@H](CCCCN)NC(=O)[C@H](CCCCN)NC(=O)CNC(=O)[C@H](CCCNC(=N)N)NC(=O)[C@H](CCCCN)NC(=O)[C@H](CCCNC(=N)N)NC(=O)[C@H](CC(C)C)NC(=O)[C@H](CCC(=O)O)NC(=O)[C@H](CCC(=O)O)NC(=O)[C@H](CC(C)C)NC(=O)[C@H](CC(C)C)NC(=O)[C@H](Cc1ccc(O)cc1)NC(=O)[C@H](CCCCN)NC(=O)[C@@H](NC(=O)[C@H](CC(C)C)NC(=O)[C@H](C)NC(=O)[C@H](CCC(N)=O)NC(=O)[C@H](CCCNC(=N)N)NC(=O)CNC(=O)[C@H](C)N)[C@@H](C)O)C(=O)N[C@@H](Cc1c[nH]c2ccccc12)C(=O)N[C@@H](Cc1c[nH]c2ccccc12)C(=O)O` [Syn-xiamencin-60] (H-AGRQALTKYLLEELRKRGKKAFIWW-OH; N-terminus and C-terminus assumed), the minimal bactericidal concentration (MBC) in the series on E. coli (BL21) (BL21) is 8 µM; in the series with S. pyogenes (M1), 4 µM; in the series on S. aureus (USA300) (USA300), over 128 µM; in the series with P. aeruginosa (PAO1), over 128 µM. Also, the MIC in the series with E. coli (BL21) (BL21, 16 h) is 4 µM; with S. pyogenes (M1) (M1, 16 h), 2 µM; with S. aureus (USA300) (USA300, 16 h) it was over 128 µM; with P. aeruginosa (PAO1), over 128 µM. The “Percent Hemolysis” value in the series with sheep erythrocytes is listed as 10.9%.
Turning to `CC[C@H](C)[C@H](NC(=O)[C@H](CCCCN)NC(=O)[C@H](CCCCN)NC(=O)[C@H](CCCCN)NC(=O)[C@H](CC(C)C)NC(=O)[C@H](CCCNC(=N)N)NC(=O)[C@H](CCC(N)=O)NC(=O)[C@H](Cc1ccccc1)NC(=O)[C@@H](NC(=O)[C@@H](NC(=O)[C@H](CCC(=O)O)NC(=O)[C@H](CCCCN)NC(=O)CNC(=O)[C@H](C)N)[C@@H](C)O)[C@@H](C)CC)C(=O)N[C@@H](CCC(N)=O)C(=O)N[C@@H](CCC(=O)O)C(=O)N[C@@H](CCCCN)C(=O)NCC(=O)N[C@@H](CCCCN)C(=O)N[C@@H](CCCNC(=N)N)C(=O)N[C@@H](C)C(=O)N[C@H](C(=O)N[C@H](C(=O)N[C@@H](Cc1c[nH]c2ccccc12)C(=O)N[C@@H](Cc1c[nH]c2ccccc12)C(=O)O)[C@@H](C)CC)[C@@H](C)O` [Syn-larvacin-67] (H-AGKETIFQRLKKKIQEKGKRATIWW-OH; N-terminus and C-terminus assumed), the minimum bactericidal concentration (MBC) in the series on E. coli (BL21) (BL21) stood at 4 µM; in the series with S. pyogenes (M1), 0.25 µM; in the series on S. aureus (USA300) (USA300), 64 µM; with P. aeruginosa (PAO1) it was 32 µM. Moreover, the MIC is 4 µM in the series with E. coli (BL21) (BL21, 16 h); 0.25 µM in the series on S. pyogenes (M1) (M1, 16 h); 64 µM in the series on S. aureus (USA300) (USA300, 16 h); 16 µM with P. aeruginosa (PAO1). In addition, in the series with sheep erythrocytes, the “Percent Hemolysis” value worked out at 16.3%.
Take `CC[C@H](C)[C@H](NC(=O)[C@H](CCCCN)NC(=O)[C@H](CCCCN)NC(=O)CNC(=O)[C@H](CCC(=O)O)NC(=O)[C@H](CC(N)=O)NC(=O)[C@@H](NC(=O)[C@@H](NC(=O)[C@H](CCCCN)NC(=O)[C@H](CCCCN)NC(=O)[C@H](CC(C)C)NC(=O)[C@H](CCCNC(=N)N)NC(=O)[C@H](CC(N)=O)NC(=O)[C@H](Cc1ccccc1)NC(=O)[C@@H](NC(=O)[C@H](CCCCN)NC(=O)[C@H](CCC(=O)O)NC(=O)[C@@H](NC(=O)CNC(=O)[C@H](C)N)[C@@H](C)O)[C@@H](C)CC)[C@@H](C)O)[C@@H](C)CC)C(=O)N[C@@H](C)C(=O)N[C@@H](CCCCN)C(=O)N[C@@H](CCCNC(=N)N)C(=O)N[C@@H](Cc1c[nH]c2ccccc12)C(=O)N[C@@H](Cc1c[nH]c2ccccc12)C(=O)O` [Syn-larvacin-72] (H-AGTEKIFNRLKKTINEGKKIAKRWW-OH; N-terminus and C-terminus assumed): the minimum bactericidal concentration (MBC) in the series on E. coli (BL21) (BL21) was 0.25 µM; with S. pyogenes (M1), 2 µM; in the series on S. aureus (USA300) (USA300) it was over 128 µM; in the series on P. aeruginosa (PAO1), 64 µM. The minimum inhibitory concentration (MIC) was 0.25 µM in the series with E. coli (BL21) (BL21, 16 h); 0.125 µM with S. pyogenes (M1) (S. pyogenes M1); over 128 µM in the series with S. aureus (USA300) (USA300, 16 h); 32 µM in the series with P. aeruginosa (PAO1). Moreover, the “Percent Hemolysis” value with sheep erythrocytes was 26.3%.
As to `CC[C@H](C)[C@H](NC(=O)[C@H](CCCCN)NC(=O)[C@H](CCCCN)NC(=O)CNC(=O)[C@H](CCC(=O)O)NC(=O)[C@H](CCC(N)=O)NC(=O)[C@@H](NC(=O)[C@@H](NC(=O)[C@H](CCCCN)NC(=O)[C@H](CCCCN)NC(=O)[C@H](CC(C)C)NC(=O)[C@H](CCCNC(=N)N)NC(=O)[C@H](CCC(N)=O)NC(=O)[C@H](Cc1ccccc1)NC(=O)[C@@H](NC(=O)[C@H](CCCCN)NC(=O)[C@H](CCC(=O)O)NC(=O)[C@@H](NC(=O)CNC(=O)[C@H](C)N)[C@@H](C)O)[C@@H](C)CC)[C@@H](C)O)[C@@H](C)CC)C(=O)N[C@@H](C)C(=O)N[C@@H](CCCCN)C(=O)N[C@@H](CCCNC(=N)N)C(=O)N[C@@H](Cc1c[nH]c2ccccc12)C(=O)N[C@@H](Cc1c[nH]c2ccccc12)C(=O)O` [Syn-larvacin-71] (H-AGTEKIFQRLKKTIQEGKKIAKRWW-OH; N-terminus and C-terminus assumed), the minimum bactericidal concentration (MBC) is 0.25 µM in the series on E. coli (BL21) (E. coli BL21), 0.125 µM in the series on S. pyogenes (M1), under 0.25 µM in the series with S. aureus (USA300) (USA300) and 32 µM in the series with P. aeruginosa (PAO1). The MIC with E. coli (BL21) (E. coli BL21) is 0.25 µM; with S. pyogenes (M1) (S. pyogenes M1) it was 0.125 µM; in the series on S. pyogenes (M1) (S. pyogenes M1, running text b43, unit printed nm), 0.125 µM; with S. aureus (USA300) (USA300), 0.25 µM; in the series with S. aureus (USA300) (USA300, 16 h) it was under 0.25 µM; with P. aeruginosa (PAO1), 16 µM. In addition, in the series on sheep erythrocytes, the “Percent Hemolysis” value is 20.6%.
